Measurements taken from US20210130401A1, “PEPTIDOMIMETIC INHIBITORS OF THE WDR5-MLL INTERACTION” (THE REGENTS OF THE UNIVERSITY OF MICHIGAN, priority 2017, published 2021).
Read-outs that look alike come from different tables or passages of the source.

Legend:
[1] = test system: MOLM-13 leukemia cells carrying MLL-AF9 fusion; assay: cell viability assay (WST-8), MOLM-13; format: cell-based; details: Homo sapiens, MOLM-13, 96 h, read-out: MOLM-13 IC50 (μM)
WDR5 = molecular target: T1, WDR5 (Homo sapiens, UniProt P61964); assay: fluorescence polarization (FP) based competitive binding assay to WDR5 protein
T1 construct: N-terminal His-tagged WDR5 protein (residues 24-334), named WDR5Δ23; made in house; host or cells: E. coli Rosetta 2 (DE3)
Experimental: The plates were incubated at room temperature on a shaker for 3h, and then the mP values were measured using the Tecan Infinite M-1000 plate reader (Tecan U.S., Research Triangle Park, N.C.).

[2] = amide bond, 14-membered ring, HATU/DIEA, DMF, with chain assembly

For “N-((3R,6S,9S,12R)-6-ethyl-12-methyl-2,5,8,11-tetraoxo-3-phenyl-9-(3-ureidopropyl)-1,4,7,10-tetraazacyclotetradecan-12-yl)isobutyramide”, the ring closure, yield after HPLC [2] was 6%.
CC[C@@H]1NC(=O)[C@H](CCCNC(=N)NS(=O)(=O)c2c(C)c(C)c3c(c2C)CC(C)(C)O3)NC(=O)[C@](C)(NC(=O)C(C)C)CC=CCCCNC(=O)[C@@H](c2ccccc2)NC1=O showed a ring closure, yield after HPLC (from iPrCO-(R)-αMe-allylGly-Arg(Pbf)-Abu-dPhg-NH-(pent-4-enyl)?, rcm bond, 18-membered ring, Hoveyda-Grubbs II (0.5 eq), CH2Cl2, 25.0 °C, 3 steps) of 46%.
In the case of CC[C@@H]1NC(=O)[C@H](CCCN/C(=N\C)NS(=O)(=O)c2c(C)c(C)c3c(c2C)CC(C)(C)O3)NC(=O)[C@](C)(NC(=O)C(C)C)CC=CCNC(=O)[C@@H](c2ccccc2)NC1=O, the ring closure, yield after HPLC (from (R)—N-((8S,11S,14R,E)-11-ethyl-9,12,15-trioxo-3-(2,2,4,6,7-pentamethyl-2,3-dihydrobenzofuran-5-sulfonamido)-14-phenyl-2,4,10,13,16-pentaazanonadeca-2,18-dien-8-yl)-2-isobutyramido-2-methylpent-4-enamide, rcm bond, 16-membered ring, Hoveyda-Grubbs II (0.5 eq), CH2Cl2, 25.0 °C, 3 steps) is reported as 75%.
With “N-((3R,6S,12R)-9-(3-amino-3-oxopropyl)-6-ethyl-12-methyl-2,5,8,11-tetraoxo-3-phenyl-1,4,7,10-tetraazacyclotetradecan-12-yl)isobutyramide” the ring closure, yield after HPLC [2] was 17%.
For “N-((3R,6S,12R)-6-ethyl-12-methyl-2,5,8,11-tetraoxo-3-phenyl-9-(3-phenylpropyl)-1,4,7,10-tetraazacyclotetradecan-12-yl)isobutyramide”, the ring closure, yield after HPLC [2] was 7%.
In the case of “N-((3R,6S,9S,12R)-6-ethyl-9-(3-guanidinopropyl)-2,5,8,11-tetraoxo-3-phenyl-1,4,7,10-tetraazacyclotridecan-12-yl)isobutyramide”, the ring closure, yield after HPLC (amide bond, 13-membered ring, HATU/DIEA, DMF, with chain assembly) is reported as 24.5%.
With “N-((3R,6S,9S,12R)-6-ethyl-9-(3-guanidinopropyl)-12-methyl-2,5,8,11-tetraoxo-3-phenyl-1,4,7,10-tetraazacyclotetradecan-12-yl)isobutyramide” the ring closure, yield after HPLC [2] was 8.7%.
For “N-((3R,6S,9S,12R)-6-ethyl-9-(3-guanidinopropyl)-12-methyl-2,5,8,11-tetraoxo-3-phenyl-1,4,7,10-tetraazacyclopentadecan-12-yl)isobutyramide”, the ring closure, yield after HPLC (amide bond, 15-membered ring, HATU/DIEA, DMF, with chain assembly) was 19.4%.
For CC[C@@H]1NC(=O)[C@H](CCCNC(=N)NS(=O)(=O)c2c(C)c(C)c3c(c2C)CC(C)(C)O3)NC(=O)[C@](C)(NC(=O)C(C)C)CC=CCN(C)C(=O)[C@@H](c2ccc(F)cc2)NC1=O, the ring closure, yield after HPLC (from (R)—N-((6S,9S,12R)-9-ethyl-12-(4-fluorophenyl)-1-imino-14-methyl-7,10,13-trioxo-1-(2,2,4,6,7-pentamethyl-2,3-dihydrobenzofuran-5-sulfonamido)-2,8,11,14-tetraazaheptadec-16-en-6-yl)-2-isobutyramido-2-methylpent-4-enamide, rcm bond, 16-membered ring, Hoveyda-Grubbs II (0.5+0.5 eq), CH2Cl2, 45.0 °C, 3 steps) was 11%.
“N-((3R,6S,9S,12R)-6-ethyl-9-(3-guanidinopropyl)-2,5,8,11-tetraoxo-3-phenyl-1,4,7,10-tetraazacyclohexadecan-12-yl)isobutyramide” showed a ring closure, yield after HPLC (amide bond, 16-membered ring, HATU/DIEA, DMF, 5.0 mM, with chain assembly) of 12.7%.
CC[C@@H]1NC(=O)[C@H](CCCNC(=N)NS(=O)(=O)c2c(C)c(C)c3c(c2C)CC(C)(C)O3)NC(=O)[C@](C)(NC(=O)C(C)C)CC=CCNC(=O)[C@@H](c2ccccc2)NC1=O showed a ring closure, yield after HPLC (from iPrCO-(R)-αMe-allylGly-Arg(Pbf)-Abu-dPhg-NH-allyl?, rcm bond, 16-membered ring, Hoveyda-Grubbs II (0.5 eq), CH2Cl2, 25.0 °C, 3 steps) of 53%.
For CC[C@@H]1NC(=O)[C@H](CCCN/C(=N\C)NC)NC(=O)[C@](C)(NC(=O)C(C)C)CC=CCNC(=O)[C@@H](c2ccccc2)NC1=O, the ring closure, yield after HPLC (from (R)—N-((8S,11S,14R,Z)-11-ethyl-3-(methylamino)-9,12,15-trioxo-14-phenyl-2,4,10,13,16-pentaazanonadeca-2,18-dien-8-yl)-2-isobutyramido-2-methylpent-4-enamide, rcm bond, 16-membered ring, Hoveyda-Grubbs II (0.5 eq), CH2Cl2, 25.0 °C, 3 steps) was 27%.
CC[C@@H]1NC(=O)[C@H](CCCNC(=N)NS(=O)(=O)c2c(C)c(C)c3c(c2C)CC(C)(C)O3)NC(=O)[C@](C)(NC(=O)C(C)C)CC=CCCCCCNC(=O)[C@@H](c2ccccc2)NC1=O showed a ring closure, yield after HPLC (from iPrCO-(R)-αMe-allylGly-Arg(Pbf)-Abu-dPhg-NH-(hept-6-enyl)?, rcm bond, 20-membered ring, Hoveyda-Grubbs II (0.5 eq), CH2Cl2, 25.0 °C, 3 steps) of 27%.
Compound “N-((3R,6S,12R)-6-ethyl-12-methyl-2,5,8,11-tetraoxo-9-phenethyl-3-phenyl-1,4,7,10-tetraazacyclotetradecan-12-yl)isobutyramide” has a ring closure, yield after HPLC [2] of 7%.
CC[C@@H]1NC(=O)[C@H](CCCNC(=N)NS(=O)(=O)c2c(C)c(C)c3c(c2C)CC(C)(C)O3)NC(=O)[C@](C)(NC(=O)C(C)C)CC=CCCNC(=O)[C@@H](c2ccccc2)NC1=O gave a ring closure, yield after HPLC (from iPrCO-(R)-αMe-allylGly-Arg(Pbf)-Abu-dPhg-NH-(but-3-enyl)?, rcm bond, 17-membered ring, Hoveyda-Grubbs II (0.5 eq), CH2Cl2, 25.0 °C, 3 steps) of 28%.
For CC[C@@H]1NC(=O)[C@H](CCCNC(=N)N)NC(=O)[C@](C)(NC(=O)C(C)C)CCNC(=O)[C@@H](c2cccc(F)c2)NC1=O [Cpd. No. 80, N-((3R,6S,9S,12R)-6-ethyl-3-(3-fluorophenyl)-9-(3-guanidinopropyl)-12-methyl-2,5,8,11-tetraoxo-1,4,7,10-tetraazacyclotetradecan-12-yl)isobutyramide], the IC50 [1] was 0.42 µM, the IC50 (WDR5) was 2.87 nM and the Ki (WDR5) was < 1 nM.
